# Patent US12492337B2, “Fluorescent probe, preparation method therefor and use thereof” (FLUORESCENCE DIAGNOSIS (SHANGHAI) BIOTECH COMPANY, priority 2017, dated 2025)
# Assays:
# HaloTag protein tag = assay: Probe mixed with HaloTag protein tag, fluorescence spectrophotometer (Example 86); assay type: biochemical; details: 5 μM probe, 10 μM protein tag, 37° C., 1 hour; for Fluorescence enhancement: fluorescence activation multiple after binding protein tag; for Emission/nm: fluorescence emission wavelength
# Experimental: (§1) A probe was mixed with a corresponding HaloTag protein tag to obtain a mixed sample. The final concentration of the probe in the mixed sample was 5 μM and the final concentration of the protein tag was 10 μM. The mixed sample was incubated at 37° C. for 1 hour, and the sample was detected using a fluorescence spectrophotometer.
# [1] = Quantum yield of free probe not reacted with protein tag; assay type: physicochemical
# Experimental: as §1
# [2] = Viscosity responsiveness: fluorescence intensity in glycerol versus methanol; assay type: physicochemical; details: fluorescence intensity in glycerol to that in methanol
# How it was run: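 At 25 °C, with the same dye concentration and excitation wavelength, maximum emission intensity in glycerol was compared with intensity in methanol, giving a ratio. Dye concentrations ranged from 1×10^−7 M to 1×10^−5 M.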
# SNAP protein = assay: Labeling speed and fluorescence intensity, purified SNAP protein, microplate reader (Example 95); assay type: biochemical
# Experimental: To verify that the probe-labeled HaloTag protein tag has a faster labeling speed and higher fluorescence intensity than the probe-labeled SNAP protein tag, a probe 48-labeled HaloTag protein tag and a reference probe 85-labeled SNAP protein tag were taken as examples (probe 48 and reference probe 85 have the same fluorescent dye portion). When labeling, the purified HaloTag protein and SNAP protein were first diluted to 7.5 μM with PBS.
# Probe 48 and reference probe 85 were diluted to 15 μM with PBS, and 20 μL of probe 48 was added to 80 μL of HaloTag protein and mixed, 20 μL of reference probe 85 was added to 80 μL of SNAP protein and mixed, and a microplate reader was used to monitor the changes in fluorescence intensity of the two solutions excited at 620 nm and emitted at 650 nm, which lasted for two hours.
# [3] = test system: Hela cells stably expressing HaloTag protein tags; assay: Confocal imaging of labeled Hela cells stably expressing HaloTag protein tags (Example 89); assay type: cell-based; details: Homo sapiens, 5 μM probe, 2 hours, 37° C., confocal microscope, read-out: fluorescence signal enhancement in Hela cells expressing the protein tag
# Experimental: (§2) Hela cells are used as an example to test the labeling effect of compounds in mammalian cells. Hela cells and Hela-WT cells (Hela primitive cell, without a protein tag expressed) stably expressing HaloTag protein tags were planted in 14 mm 96-well glass bottom cell culture plates and stabilized for 10 hours. Probe 57, probe 59, probe 60, probe 61, probe 69, probe 75, probe 76, probe 82 were added to the culture medium and diluted to 5 μM, respectively. The cells were incubated in a 37° C. carbon dioxide incubator for 2 hours, and the fluorescence changes of the labeled cells were detected by imaging with a Leica TPS-8 confocal microscope.
# Hela-WT cells = assay: Confocal imaging of Hela-WT cells without protein tag (Example 89); assay type: cell-based; details: 5 μM probe, 2 hours, 37° C., confocal microscope
# Experimental: as §2
# [4] = test system: HaloTag protein tags in different subcellular organelles of Hela cells; assay: Labeling HaloTag protein tags in different subcellular organelles of Hela cells (Example 90); assay type: cell-based; details: 0.2 μM probe, 2 hours, no washing; cytoskeleton, mitochondria, nucleus, Golgi, whole cells, lysosomes
# Experimental: In order to verify that probe 57, probe 59, probe 60, probe 61, probe 62, and probe 63 can be used to label target proteins located in different organelles. Hela cells were used as examples to detect the effect of probes on labeling HaloTag protein tags in different subcellular organelles. Hela cells were implanted 5000 cells per well in 96-well glass-bottom cell culture plates. After 14 hours, lipo2000 kit was used to transfect the plasmids localized by HaloTag protein tags in different organelles. The original culture medium was removed 24 hours after transfection, and the cells were washed twice with a phenol red-free DMEM medium, and incubated for 2 hours in a phenol red-free medium containing 0.2 μM probes, and the effect of cell labelling was detected by imaging using a Leica TCS-8 confocal microscope.
# [5] = test system: fusion protein CX43-HaloTag; assay: Tracing assembly of CX43-HaloTag intercellular channels in Hela cells (Example 94); assay type: cell-based
# Text: To verify that the probe can be used to monitor the assembly and degradation of biomacromolecules in mammalian cells in real time, Hela cells were used as an example to detect the process of tracing, by a probe, the assembly of intercellular protein CX43 to form intercellular channels in mammalian cells. The C-terminus of CX43 gene was fused with HaloTag gene, and a Hela cell line stably expressing the fusion protein CX43-HaloTag was constructed and obtained by lentiviral infection technology. Hela-CX43-HaloTag cell lines were implanted in a 20 mm glass-bottom cell culture dish 10 hours before the probe labeling. When labeling, the probe 61 μM was first diluted to 2 μM with phenol red-free DMEM medium and replaced the original cell culture medium. The cells were incubated in a 37° C. carbon dioxide incubator for 1 hour. Thereafter, the cells were washed twice with fresh phenol red-free DMEM medium, and the unbound probe 61 was removed at intervals of 2 min. Then, a DMEM phenol-free medium containing 1 μM probe 57 was added to label the cells, and a Leica SP8 confocal microscope was used to monitor the fluorescence intensity and position changes of labeled cells at the corresponding fluorescence channels of probe 61 and probe 57 for a long time, which are shown in FIGS. 17A and 17B, respectively. […]
# [6] = test system: HaloTag protein tag expressed in the liver; assay: Labeling of HaloTag protein tag expressed in mouse liver, in vivo imaging system (Example 92); design: species or system mice; details: 0.4 μM probe in 200 ul PBS via tail vein, 6 hours later
# Experimental: First, a plasmid pcdna3.1-HaloTag (sample group) expressing the HaloTag protein tag and a control plasmid pcdna3.1-CAT (control group) not expressing the HaloTag protein tag were introduced into mice. This method is to dissolve the plasmid in a large volume of solution and inject it into mice quickly through tail vein injection. The mouse liver absorbs DNA and then expresses the target protein. 20 hours after the plasmid injection, 0.4 μM probe 77 dissolved in 200 ul of PBS was injected into the mice via tail vein injection to label the HaloTag protein tag; 6 hours later, the mice were dissected out, and the fluorescence differences in the liver parts of different mouse samples were detected by KODAK multi-spectral in vivo imaging system.
# The fluorescence of the liver of the control plasmid pcdna3.1-CAT injected with the probe 77 was very low, which was close to the background fluorescence level of the blank liver without the probe injected, and the liver of the HaloTag plasmid pcdna3.1-HaloTag injected with the probe 77 had strong fluorescence, and the signal intensity was more than 20 times that of the control group.
# [7] = test system: HaloTag-IAA17-H2B protein; assay: Fluorescence change on IAA-induced degradation of HaloTag-IAA17-H2B in Hela cells (Example 93); assay type: cell-based; details: 1 μM probe, 1 hour labeling, then IAA-induced protein degradation
# Experimental: In order to verify the correlation between the fluorescent activation of the probe and the presence of protein, the HaloTag protein in mammalian cells was taken as an example, and the AID degradation system in Hela cells was used as an example to detect the fluorescence changes of HaloTag protein binding probes after protein degradation. First, Hela cells were implanted 20,000/cm^2 in a 20 mm glass-bottomed cell culture dish. After 14 hours, pcdna3.1-TIR1 and pcdna3.1-HaloTag-IAA17-H2B plasmids were transfected with lipofectmain2000 transfection reagent from invirtogen. 24 hours after cell transfection, the original cell culture medium was replaced with a phenol red-free DMEM medium containing 1 μM probe 61 to label the cells, and the cell samples were incubated in a 37° C. carbon dioxide incubator for 1 hour. After the labeling was completed, the fluorescence signal of cell labels was detected by imaging using a Leica SP8 laser confocal microscope. Then, indole acetic acid (IAA) was added to induce the degradation of HaloTag-IAA17-H2B protein, and the changes in cell fluorescence during protein degradation were detected. […] When proteins are present, fluorescence is activated, and when proteins are degraded, fluorescence disappears, which can be used to track and monitor the degradation process of target proteins.
SMILES,The quantum yield after binding to Halo-tag (HaloTag protein tag),Fluorescence enhancement (HaloTag protein tag),Emission/nm (HaloTag protein tag) [nm],The quantum yield of the free probe [1],ratio [2],"labeling time of the SNAP protein tag labeled by the probe (SNAP protein; 20 μL 15 μM probe + 80 μL 7.5 μM protein in PBS, excited at 620 nm, emitted at 650 nm)",fluorescence intensity lower than the former (probe 48-labeled HaloTag) by (SNAP protein; same conditions as probe 48 with HaloTag protein) [time],fold induction at 5 µM [3],fluorescent signal in Hela-WT cells (Hela-WT cells),effect of cell labelling of subcellular organelles [4],fluorescent signal in the probe 57 channel when just added ([5]; 1 μM probe added after labeling with probe 61 and washing),liver fluorescence signal intensity relative to the control group ([6]; mice with pcdna3.1-HaloTag),fluorescence of the liver of control plasmid pcdna3.1-CAT mice ([6]; mice without HaloTag expression),fluorescence signal after indoleacetic acid added for 90 min [7],"fluorescent signal in the probe 61 fluorescence channel ([5]; 2 μM probe, 1 hour, Hela-CX43-HaloTag cells)"
"CN(CCOC(=O)NCc1ccc(COc2nc(N)nc3[nH]cnc23)cc1)c1cc2c(s1)-c1sc(/C=C(\C#N)C(=O)OC(C)(C)C)cc1C2(C)C [Reference Probe85, reference compound]",0.32,321,645,<0.001,510,about 7 min,≥ 1,,,,,,,,
CN(C)c1ccc(/C=C(\C#N)C(=O)NCCOCCOCCCCCCCl)cc1 [Probe 57],0.56,1026,480,<0.001,762,,,~200,no corresponding fluorescent signal could be detected,clearly display a variety of subcellular organelle structures without washing,fluorescent signal could not be detected,,,,
CN(C)c1cc2c(s1)-c1sc(/C=C(\C#N)C(=O)OCCOCCOCCCCCCCl)cc1C2(C)C [Probe 77],0.53,721,652,0.0014,479,,,,,,,more than 20 times,very low,,
CN1CCSc2cc(/C=C(\C#N)C(=O)NCCOCCOCCCCCCCl)ccc21 [Probe 60],0.65,751,520,0.0011,1199,,,~200,no corresponding fluorescent signal could be detected,clearly display a variety of subcellular organelle structures without washing,,,,,
CN(C)c1cc2sc(/C=C(\C#N)C(=O)NCCOCCOCCCCCCCl)cc2s1 [Probe 61],0.59,668,552,0.0012,817,,,~200,no corresponding fluorescent signal could be detected,clearly display a variety of subcellular organelle structures without washing,,,,almost invisible,long column-shaped specific fluorescent signal between the two cells
N#C/C(=C\c1cc2c3c(c1)CCCN3CCC2)C(=O)NCCOCCOCCCCCCCl [Probe 59],0.45,498,500,<0.001,370,,,~200,no corresponding fluorescent signal could be detected,clearly display a variety of subcellular organelle structures without washing,,,,,
CN(C)c1ccc2nc(/C=C(\C#N)C(=O)NCCOCCOCCCCCCCl)ccc2c1 [Probe 62],0.57,592,590,<0.001,711,,,,,clearly display a variety of subcellular organelle structures without washing,,,,,
